The subject of one experiment is hepatic stellate cells. The experiment in a line: Induction of fibrogenic genes in cultured hepatic stellate cells. In kind it is cell-based, rat. As to conditions: freshly isolated quiescent hepatic stellate cells in culture. The text has this: EZH2 is therefore a negative regulator of PPARγ transcription in myofibroblasts, but also appears to play a wider regulatory role in promoting MTD and wound-healing. Furthermore, the stimulation of EZH2 expression and subsequent methylation of H3K27 in the downstream exons of the PPARγ gene is identified as a second mechanism through which MeCP2 achieves transcriptional silencing of PPARγ. The combined effect of H3K9 methylation and HP1α binding at the 5′ end of the PPARγ gene with H3K27 methylation and PRC1 recruitment in the downstream exons would be to prevent both transcriptional initiation and elongation which reflects the biological importance of suppressing PPARγ expression for MTD and wound-healing. […]
Total RNA was purified from isolated cells using the Total RNA purification kit (Qiagen, UK) following the manufacturer's instructions and was used to generate first strand cDNA utilising a random hexamer primer [p(dN)6] and MMLV reverse transcriptase. […] After each run, a dissociation curve was performed to ensure that no primer dimers contaminated the quantification and that the product had the expected melting temperature. All PCR reactions were normalized to the internal control and relative level of transcriptional difference calculated using the following equation: [1/(2A)]×100.

Experiment [1] concerns α1 (I) collagen and TIMP-1 transcripts. The experiment in a line: Acute CCl4 liver injury, liver transcripts by qPCR. In kind it is in vivo, C57Bl6 mice. Conditions: mice, 15 mg/m^2 IP 2 hours prior to single dose of CCl4, sacrificed 24 h after. How it is done: FIG. 5—A.) and B.) 5×10^6 rat MFBs were electroporated as outlined “Materials and methods”. 2 μgs control siRNA or siRNA designed to target rat EZH2 was used per transfection. Total RNA was prepared from control or rat EZH2 siRNA transfected cells 48 h after the electroporation. First strand cDNA was synthesised which was then utilised as a template in qPCR using primers for specific amplification of EZH2 (in A.) and PPARγ (in B.). C.) Fully differentiated MFBs were treated with 1 μM 3-deazaneplanocin A or vehicle for 72 h at which time total RNA was prepared from control or drug treated cells. First strand cDNA was synthesised which was then utilised as a template in qPCR using primers for specific amplification of PPARγ. D.) Freshly isolated rat HSC were plated out onto plastic in two separate dishes and one dish treated with 1 μM 3-deazaneplanocin A at 12 h following the HSC isolation. […] Results are expressed as percent control of 3-deazaneplanocin A and olive oil vehicle injected mice (data not included in the graph).
3 deazaneplanocin A was given to two groups of four C57Bl6 mice (15 mg/m^2 which was calculated to be 0.428 μg of drug per g body weight of a mouse) was given IP 2 hours prior to a single dose of CCl4 (CCl4/olive oil in a 1:1 [vol/vol] ratio at 1 μl per g body weight). […]

In the next experiment the test system is EZH2. Conditions: Tan J et al, 2007; cited from earlier work.
A further experiment relates to collagen I. The experiment in a line: Further testing: fibrogenic activity measured by production of collagen I. It counts as cell-based. As to conditions: 1 μM, one dose at start of culturing, 7 days (FIG. 11). The text has this:
RNA was also isolated on days 4 and 7.

`Nc1nccc2c1ncn2[C@@H]1C=C(CO)[C@@H](O)[C@H]1O` [Compound 3, 3-deazaneplanocin A]: in the experiment on hepatic stellate cells, the “induction of fibrogenic gene al (I) collagen” value is “suppressed the induction” and the “induction of fibrogenic gene tissue inhibitor of metalloproteinase-1 (TIMP-1)” value was “suppressed the induction”. Further, in experiment [1], the “induction of transcripts for TIMP-1 in injured liver” value is listed as “suppressed the induction” and the “induction of transcripts for α1 (I) collagen in injured liver” value is “suppressed the induction”. In addition, the “effect on cellular EZH2” value with EZH2 is on record as “depletes cells of EZH2”.

As to `Nc1nc(Cl)cc2c1ncn2C1COC(CO)O1` (stereo not drawn) [Compound 8], the “inhibition of collagen I production at 7 days” value in the experiment with collagen I is “significant inhibition”.

These data come from patent publication US8642602B2, “Method of inhibiting fibrogenesis and treating fibrotic disease” (University of Georgia Research Foundation, Inc., priority 2009, dated 2014).
